The record followed here is US10570179B2, “Substituted urea depsipeptide analogs as activators of the CLPP endopeptidase” (priority 2016, dated 2020).

The structures appear in SMILES notation. Values after ≈ are worked out from the molar mass of the structure shown. Numbered stars: 1 amine (or outer) side, 2 acyl side, 3 side chain; on linkers, the order of the positions; unused ones are H or OH. Bridge positions count the residues as written; N and C are the ends. Square brackets hold non-standard residues; d marks the D form. Peptide text beside a SMILES is read from it. * marks the point of attachment. Piperazine(2S-CO,4-Me) = CN1CCN[C@H](C(=O)O)C1; Phe(3-Me) = Cc1cccc(C[C@H](N)C(=O)O)c1; Pro(4S-Me) = C[C@@H]1CN[C@H](C(=O)O)C1; Pro(4R-Me) = C[C@H]1CN[C@H](C(=O)O)C1; Hyp = O=C(O)[C@@H]1C[C@@H](O)CN1; NH(3-Cl-phenyl) = Clc1cccc(N*)c1; NH(4-Cl-phenyl) = Clc1ccc(N*)cc1; aThr = C[C@H](O)[C@H](N)C(=O)O; Pip = O=C(O)[C@@H]1CCCCN1; CO = O=C([*:1])[*:2]

Assay [1] concerns the target T1, S. aureus ClpP (Sa-ClpP) (Staphylococcus aureus, UniProt Q2G036).
T1 construct: made in house; host or cells: E. coli BL21 (DE3)
As to the kind of experiment: Casein-BODIPY digestion assay (ClpP activation). Format: biochemical.

Assay [2] has as its system S. aureus ATCC 29213. As to the kind of experiment: Minimal inhibitory concentration, microbroth dilution. In kind it is cell-based. The conditions noted are these: Staphylococcus aureus, ATCC29213, read-out: Minimal Inhibitory Concentrations (μM) S. aureus ATCC 29213, MIC. In a few lines: (§1)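 MICs were determined by CLSI broth microdilution, using two-fold compound dilutions from a final 200 μM and about 10^5 cfu/mL inoculum. Plates were incubated aerobically at 37 °C overnight. The MIC was read visually as the lowest concentration preventing growth.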
On the technique in general: In broth dilution the organism is exposed to a series of concentrations in liquid medium.

Assay [3] concerns S. aureus USA 300. The description is as above. The conditions noted are these: Staphylococcus aureus, USA300, read-out: Minimal Inhibitory Concentrations (μM) S. aureus USA 300, MIC. In kind it is cell-based. In a few lines: as §1
The test system of assay [4] is MRSA NRS70. Described as above. In kind it is cell-based. The note with it: Staphylococcus aureus, read-out: Minimal Inhibitory Concentrations (μM) MRSA NRS70, MIC. The method in brief:
as §1

For assay [5], the system named is E. faecails. The description is as above. In kind it is cell-based. The conditions noted are these: Enterococcus faecalis, read-out: Minimal Inhibitory Concentrations (μM) E. faecails, MIC. The method in brief:
as §1

Assay [6] concerns S. aureus ΔClpP. The assay is described as above. Format: cell-based, Staphylococcus aureus. The conditions noted are these: MIC; ClpP inactivated. In a few lines:
as §1

T1 sequence (Q2G036 whole entry): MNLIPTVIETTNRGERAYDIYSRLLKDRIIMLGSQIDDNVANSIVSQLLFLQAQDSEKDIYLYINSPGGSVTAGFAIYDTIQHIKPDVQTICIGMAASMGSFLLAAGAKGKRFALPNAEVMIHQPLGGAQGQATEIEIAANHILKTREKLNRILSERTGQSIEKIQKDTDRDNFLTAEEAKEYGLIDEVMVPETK

The EC50 is the concentration at which the effect is half-maximal. `Cc1cccc(C[C@H](NC(=O)Nc2ccc(Cl)cc2)C(=O)N[C@@H]2C(=O)N3C[C@H](O)C[C@H]3C(=O)N3CCCC[C@H]3C(=O)N[C@@H](C)C(=O)N3C[C@@H](C)C[C@H]3C(=O)O[C@H]2C)c1` [Compound 66, (S)-2-(3-(4-CHLOROPHENYL)UREIDO)-N-((2S,6S,8AS,14AS,16R,20S,21S,23AS)-16-HYDROXY-2,6,21-TRIMETHYL-5,8,14,19,23-PENTAOXOOCTADECAHYDRO-1H,5H,14H,19H-PYRIDO[2,1-I]DIPYRROLO[2,1-C:2′,1′-L][1]OXA[4,7,10,13]TETRAAZACYCLOHEXADECIN-20-YL)-3-(M-TOLYL)PROPANAMIDE] ({NH(4-Cl-phenyl)-CO}-[Phe(3-Me)][aThr][Hyp][Pip]A[Pro(4S-Me)]; ester 2-C) yielded an EC50 in assay [1] of 160 ± 100 nM. For the same compound, the MIC in assay [2] was 0.625 µM (≈ 0.514 µg/mL); in assay [3], 0.313 µM (≈ 0.257 µg/mL); in assay [4] it was 1.25 µM (≈ 1.03 µg/mL); in assay [5], 1.25 µM (≈ 1.03 µg/mL). Besides, the “Minimal Inhibitory Concentrations (μM) S. aureus ΔClpP” value in assay [6] was above 20 µM.

The compound `Cc1cccc(C[C@H](NC(=O)Nc2cccc(Cl)c2)C(=O)N[C@@H]2C(=O)N3C[C@H](O)C[C@H]3C(=O)N3CCCC[C@H]3C(=O)N[C@@H](C)C(=O)N3C[C@@H](C)C[C@H]3C(=O)O[C@H]2C)c1` [Compound 67, (S)-2-(3-(3-CHLOROPHENYL)UREIDO)-N-((2S,6S,8AS,14AS,16R,20S,21S,23AS)-16-HYDROXY-2,6,21-TRIMETHYL-5,8,14,19,23-PENTAOXOOCTADECAHYDRO-1H,5H,14H,19H-PYRIDO[2,1-I]DIPYRROLO[2,1-C:2′,1′-L][1]OXA[4,7,10,13]TETRAAZACYCLOHEXADECIN-20-YL)-3-(M-TOLYL)PROPANAMIDE] ({NH(3-Cl-phenyl)-CO}-[Phe(3-Me)][aThr][Hyp][Pip]A[Pro(4S-Me)]; ester 2-C) had an EC50 in assay [1] of 440 ± 300 nM. Moreover, the MIC came to 2.5 µM (≈ 2.06 µg/mL) in assay [2], 2.5 µM (≈ 2.06 µg/mL) in assay [3], 2.5 µM (≈ 2.06 µg/mL) in assay [4] and 5 µM (≈ 4.11 µg/mL) in assay [5]. For the same compound, the “Minimal Inhibitory Concentrations (μM) S. aureus ΔClpP” value in assay [6] is above 20 µM.

In assay [1], `Cc1cccc(C[C@H](NC(=O)Nc2ccc(Cl)cc2)C(=O)N[C@@H]2C(=O)N3C[C@H](O)C[C@H]3C(=O)N3CCN(C)C[C@H]3C(=O)N[C@@H](C)C(=O)N3C[C@H](C)C[C@H]3C(=O)O[C@H]2C)c1` [Compound 68, (S)-2-(3-(4-CHLOROPHENYL)UREIDO)-N-((6AS,8R,12S,13S,15AS,17R,21S,23AS)-8-HYDROXY-2,13,17,21-TETRAMETHYL-6,11,15,20,23-PENTAOXOOCTADECAHYDRO-2H,6H,11H,15H-PYRAZINO[2,1-I]DIPYRROLO[2,1-C:2′,1′-L][1]OXA[4,7,10,13]TETRAAZACYCLOHEXADECIN-12-YL)-3-(M-TOLYL)PROPANAMIDE] ({NH(4-Cl-phenyl)-CO}-[Phe(3-Me)][aThr][Hyp][Piperazine(2S-CO,4-Me)]A[Pro(4R-Me)]; ester 2-C) registered an EC50 of 290 ± 100 nM. Also, the MIC in assay [2] was 1.25 µM (≈ 1.05 µg/mL); in assay [3], 0.625 µM (≈ 0.523 µg/mL); in assay [4], 2.5 µM (≈ 2.09 µg/mL); in assay [5], 0.625 µM (≈ 0.523 µg/mL). The “Minimal Inhibitory Concentrations (μM) S. aureus ΔClpP” value in assay [6] was above 20 µM.

The compound `Cc1cccc(C[C@H](NC(=O)Nc2cccc(Cl)c2)C(=O)N[C@@H]2C(=O)N3C[C@H](O)C[C@H]3C(=O)N3CCN(C)C[C@H]3C(=O)N[C@@H](C)C(=O)N3C[C@H](C)C[C@H]3C(=O)O[C@H]2C)c1` [Compound 69, (S)-2-(3-(3-CHLOROPHENYL)UREIDO)-N-((6AS,8R,12S,13S,15AS,17R,21S,23AS)-8-HYDROXY-2,13,17,21-TETRAMETHYL-6,11,15,20,23-PENTAOXOOCTADECAHYDRO-2H,6H,11H,15H-PYRAZINO[2,1-I]DIPYRROLO[2,1-C:2′,1′-L][1]OXA[4,7,10,13]TETRAAZACYCLOHEXADECIN-12-YL)-3-(M-TOLYL)PROPANAMIDE] ({NH(3-Cl-phenyl)-CO}-[Phe(3-Me)][aThr][Hyp][Piperazine(2S-CO,4-Me)]A[Pro(4R-Me)]; ester 2-C) came in with an EC50 in assay [1] of 390 ± 800 nM. Besides, the MIC in assay [2] stood at 5 µM (≈ 4.19 µg/mL); in assay [3], 2.5 µM (≈ 2.09 µg/mL); in assay [4] it was 5 µM (≈ 4.19 µg/mL); in assay [5] it was 5 µM (≈ 4.19 µg/mL). Further, the “Minimal Inhibitory Concentrations (μM) S. aureus ΔClpP” value in assay [6] is above 20 µM.
